Assay results: patent publication US10689378B2, “Triazolopyridine compounds and uses thereof” (Novartis AG, priority 2016, dated 2020)
Like-named read-outs stand apart in the source and are kept apart here.

Experiments:
EED (1-441)-His protein = molecular target: T1, EED (1-441)-His protein (Homo sapiens, UniProt O75530); test: EED-H3K27Me3 peptide competition binding assay by AlphaScreen
T1 construct: 30 nM EED (1-441)-His protein
Method: EED-H3K27Me3 Peptide Competition Binding Assay by AlphaScreen (α-Screen)
To assess the compounds' potency in the EED-H3K27Me3 competition binding assay, compounds were serially diluted 3-fold in DMSO to obtain a total of twelve concentrations. Then compounds at each concentration (75 nL of each) were transferred by Mosquito into a 384-well Perkin Elmer ProxiPlate 384 plus plates. 8 uL of solutions containing 30 nM EED (1-441)-His protein and 15 nM biotin-H3K27Me3 (19-33) peptide in the buffer (25 mM HEPES, pH 8, 0.02% Tween-20, 0.5% BSA) were added to the wells and then incubated with compound for 20 min. AlphaScreen detection beads mix was prepared immediately before use by mixing nickel chelate acceptor beads and streptavidin donor beads in a 1:1 ratio (Perkin Elmer, Product No. 6760619C/M/R) into the buffer described above. Then 4 μL of detection beads mix was added to the plate and incubate in the dark at the rt for 1 h. The final concentration of donor and acceptor beads was 10 μg/mL for each. Plates were read on EnVision (PerkinElmer) using the AlphaScreen setting adapted for optimal signal detection with a 615 nm filter, after sample excitation at 680 nm. The emission signal at 615 nm was used to quantify compounds inhibition. AlphaScreen signals were normalized based on the reading coming from the positive (maximum signal control) and negative controls (minimum signal control) to give percentage of activities left. The data were then fit to a dose response equation using the program Helios (Novartis) to get the IC50 values. Helios is a Novartis in-house assay data analysis software using the methods described by Normolle, D. P., Statistics in Medicine, 12:2025-2042 (1993); Formenko, I. et al, Computer Methods and Programs in Biomedicine, 82, 31-37 (2006); Sebaugh, J. L., Pharmaceutical Statistics, 10:128-134 (2011); Kelly, C. et al., Biometrics, 46(4):1071-1085 (1990); and Kahm, M. et al., Journal of Statistical Software, 33 (7): (2010) (grofit: Fitting Biological Growth Curves with R, pages 1-21, available at http://www.jstatsoft.org/).

[1] = tested on: H3K27 methylation in G401 cell; test: ELISA (H3K27 methylation) assay in G401 cells; format: cell-based, human; settings: Homo sapiens
Method: Compounds of the present invention were assessed for their ability to inhibit PRC2 activity in a pentameric complex of EZH2, SUZ12, EED, Rbap48 and AEBP in biochemical assays. The ability of compounds of the present invention to inhibit cellular activity of PRC2 was assessed by analysing histone H3 lysine 27 methylation in human cell lines. The ability of compounds of the present invention to inhibit cancers was derived from their ability to modulate activity in human cancer cell lines bearing specific dependence to PRC2 activity to maintain cancerous growth.
ELISA (H3K27 Methylation) Assay
Representative compounds of the present invention were serially and separately diluted 3-fold in DMSO to obtain a total of eight or twelve concentrations. Then the compounds were added to G401 cell cultured in 384-well plate at 1:500 dilution to obtain the highest concentration of 20 μM. The cells were further cultured for 48 h before ELISA procedure.
Histone extraction: Cells, in 384-well plate, were washed with PBS (10×PBS buffer (80 g NaCl (Sigma, S3014), 2 g KCl (Sigma, 60128), 14.4 g Na2HPO4 (Sigma, S5136), 2.4 g KH2PO4 (Sigma, P9791) to 1 L water, pH to 7.4) and lysed with the addition of lysis buffer (0.4N HCl; 45 μL per well). The plate was gently agitated at 4° C. for 30 min. The cell lysate was neutralized with neutralization buffer (0.5 M sodium phosphate dibasic, pH 12.5, 1 mM DTT; 36 μL per well). The plate was agitated to ensure the lysates were well mixed prior to the ELISA protocol.
ELISA protocol: Cell lysates were transferred to the wells of a 384-well plate and the final volume was adjusted to 50 μL per well with PBS. The plate was sealed, centrifuged at 2,000 rpm for 2 min and incubated at 4° C. for about 16 h. The plate was washed with TBST buffer (1×TBS (10×TBS: 24.2 g Tris (Sigma, T6066), 80 g NaCl (Sigma, S3014) to 1 L of water and adjust pH to 7.6 with HCl) with 0.1% Tween-20). Blocking buffer (TBST, 5% BSA; 50 μL per well) was added and the plate was incubated for 1 h at rt. The blocking buffer was removed and primary antibody was added (30 μL per well). The following dilutions were performed with blocking buffer: for anti-H3K27me3 antibody (Cell Signaling Technology, #9733), dilution was 1:1000; for anti-H3K27me2 antibody (Cell Signaling Technology, #9288), dilution was 1:100; for anti-H3 antibody (Abcam, Cat #24834), dilution was 1:1000. The primary antibody was incubated in the plate at rt for 1 h. The wells were washed with TBST and incubated with secondary antibody for 1 h at rt. For secondary antibodies, the following dilutions were carried out with blocking buffer: anti-rabbit antibody (Jackson ImmunoResearch, #111-035-003), dilution was 1:2000; and anti-mouse antibody (Cell signaling technology, #7076), dilution was 1:1000. After 1 h of incubation at rt, the wells were washed with TBST. ECL substrate (Pierce, #34080) was added at 30 μL per well and the plates were centrifuged at 2,000 rpm for 2 min. The signal was read using a PerkinElmer Envision Reader. The H3K27 methylation readouts were normalized using H3 signal and then percentage inhibition was calculated against the samples treated with DMSO. The data were then fit to a dose response curve using the program Helios to get the IC50 values of the test compound.

[2] = read-out: (a) IC50, EED Alphascreen binding Qualified
[3] = G-401, read-out: (c) IC50, ELISA Qualified
[4] = EED-H3K27Me3 peptide competition, AlphaScreen, read-out: (a) IC50 EED Alphascreen binding Qualified
[5] = G-401, H3K27 methylation ELISA, read-out: (c) IC50 ELISA Qualified

T1 sequence (O75530 whole entry): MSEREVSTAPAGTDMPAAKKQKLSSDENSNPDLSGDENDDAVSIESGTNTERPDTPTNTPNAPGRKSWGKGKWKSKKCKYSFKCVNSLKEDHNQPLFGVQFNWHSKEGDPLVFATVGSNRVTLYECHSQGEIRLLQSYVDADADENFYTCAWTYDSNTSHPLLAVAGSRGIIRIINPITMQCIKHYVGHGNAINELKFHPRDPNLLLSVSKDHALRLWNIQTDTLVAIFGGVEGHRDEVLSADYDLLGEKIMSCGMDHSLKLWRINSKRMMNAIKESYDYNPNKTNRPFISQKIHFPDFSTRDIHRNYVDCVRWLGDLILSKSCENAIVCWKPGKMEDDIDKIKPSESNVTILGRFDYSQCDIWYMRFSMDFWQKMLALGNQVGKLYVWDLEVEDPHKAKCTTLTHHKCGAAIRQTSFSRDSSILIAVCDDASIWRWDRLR

Compound | IC50 (EED (1-441)-His protein; [2]) | IC50 [1, 3] | IC50 (EED (1-441)-His protein; [4]) | IC50 [1, 5]
COc1ccc(F)c(CNc2ccc(-c3ccc(S(C)(=O)=O)cc3)c3nncn23)c1 [Example 120, N-(2-fluoro-5-methoxybenzyl)-8-(4-(methylsulfonyl)phenyl)-[1,2,4]triazolo[4,3-a]pyridin-5-amine] | 0.244 µM | 0.19 µM |  | 
COc1ccc(F)c(CNc2ccc(-c3cccnc3)c3nncn23)c1 [Example 121, N-(2-fluoro-5-methoxybenzyl)-8-(pyridin-3-yl)-[1,2,4]triazolo[4,3-a]pyridin-5-amine] | 0.68 µM | 0.299 µM |  | 
COc1ccc(F)c(CNc2ccc(-c3ccc(S(C)(=O)=O)nc3)c3nncn23)c1 [Example 122, N-(2-fluoro-5-methoxybenzyl)-8-(6-(methylsulfonyl)pyridin-3-yl)-[1,2,4]triazolo[4,3-a] pyridin-5-amine] | 0.313 µM | 0.138 µM |  | 
COc1cccc(F)c1CNc1ccc(-c2cnn(C)c2)c2nncn12 [Example 125, N-(2-fluoro-6-methoxybenzyl)-8-(1-methyl-1H-pyrazol-4-yl)-[1,2,4] triazolo[4,3-a]pyridin-5-amine] | 0.153 µM | 0.173 µM |  | 
COc1cc(F)ccc1CNc1ccc(-c2ccc(NS(C)(=O)=O)c(F)c2)c2nncn12 [Example 129, N-(2-fluoro-4-(5-((4-fluoro-2-methoxybenzyl)amino)-[1,2,4]triazolo[4,3-a]pyridin-8-yl)phenyl)methane sulfonamide] | 0.381 µM | 0.854 µM |  | 
COc1cc(F)ccc1CNc1ccc(-c2ccc(S(C)(=O)=O)nc2)c2nncn12 [Example 134, N-(4-fluoro-2-methoxybenzyl)-8-(6-(methylsulfonyl)pyridin-3-yl)-[1,2,4]triazolo[4,3-a] pyridin-5-amine] | 0.177 µM | 0.538 µM |  | 
COc1ccc(F)cc1CNc1ccc(-c2ccc(S(=O)(=O)C3CCN(C)CC3)cc2)c2nncn12 [Example 135, N-(5-fluoro-2-methoxybenzyl)-8-(4-((1-methylpiperidin-4-yl)sulfonyl)phenyl)-[1,2,4]triazolo[4,3-a] pyridin-5-amine] | 0.444 µM | 0.279 µM |  | 
COc1c(F)cccc1CNc1ccc(-c2ccc(S(C)(=O)=O)nc2)c2nncn12 [Example 136, N-(3-fluoro-2-methoxybenzyl)-8-(6-(methylsulfonyl)pyridin-3-yl)-[1,2,4]triazolo[4,3-a] pyridin-5-amine] | 2.88 µM | 11.4 µM |  | 
COc1c(F)cccc1CNc1ccc(-c2ccncc2)c2nncn12 [Example 137, N-(3-fluoro-2-methoxybenzyl)-8-(pyridin-4-yl)-[1,2,4]triazolo[4,3-a]pyridin-5-amine] | 0.344 µM | 0.733 µM |  | 
COc1c(F)cccc1CNc1ccc(-c2ccc(S(=O)(=O)C3CCN(C)CC3)cc2)c2nncn12 [Example 138, N-(3-fluoro-2-methoxybenzyl)-8-(4-((1-methylpiperidin-4-yl)sulfonyl)phenyl)-[1,2,4] triazolo[4,3-a]pyridin-5-amine] | 1.27 µM | 2.9 µM |  | 
COc1cccc(F)c1CNc1ccc(-c2cnc(N(C)C)nc2)c2nncn12 [Example 141, 8-(2-(dimethylamino)pyrimidin-5-yl)-N-(2-fluoro-6-methoxybenzyl)-[1,2,4] triazolo[4,3-a]pyridin-5-amine] | 0.118 µM | 0.761 µM |  | 
COc1c(F)cccc1CNc1ccc(-c2cccnc2)c2nncn12 [Example 144, N-(3-fluoro-2-methoxybenzyl)-8-(pyridin-3-yl)-[1,2,4]triazolo[4,3-a]pyridin-5-amine] | 1.27 µM | 0.986 µM |  | 
COc1cccc(F)c1CNc1ccc(-c2cnn(CCO)c2)c2nncn12 [Example 145, 2-(4-(5-((2-fluoro-6-methoxybenzyl)amino)-[1,2,4]triazolo[4,3-a]pyridin-8-yl)-1H-pyrazol-1-yl)ethanol] | 0.125 µM | 0.118 µM |  | 
COc1c(F)cc(F)cc1CNc1ccc(-c2ccc(CN(C)C)cc2)c2nncn12 [Example 146, N-(3,5-difluoro-2-methoxybenzyl)-8-(4-((dimethylamino)methyl)phenyl)-[1,2,4]triazolo[4,3-a] pyridin-5-amine] | 1.98 µM | 4.11 µM |  | 
COc1cc(F)ccc1CNc1ccc(-c2ccc(S(=O)(=O)C3CCN(C)CC3)cc2)c2nncn12 [Example 153, N-(4-fluoro-2-methoxybenzyl)-8-(4-((1-methylpiperidin-4-yl)sulfonyl)phenyl)-[1,2,4]triazolo[4,3-a] pyridin-5-amine] | 0.168 µM | 0.223 µM |  | 
COc1cc(CNc2ccc(-c3ccc(CN(C)C)cc3)c3nncn23)ccc1F [Example 156, 8-(4-((dimethylamino)methyl)phenyl)-N-(4-fluoro-3-methoxybenzyl)-[1,2,4] triazolo[4,3-a]pyridin-5-amine] | 1.35 µM | 0.788 µM |  | 
COc1cc(F)cc(CNc2ccc(-c3ccc(CN(C)C)cc3)c3nncn23)c1 [Example 171, 8-(4-((dimethylamino)methyl)phenyl)-N-(3-fluoro-5-methoxybenzyl)-[1,2,4]triazolo[4,3-a]pyridin-5-amine] | 0.839 µM | 1.1 µM |  | 
COc1ccccc1-c1ccc(NCc2c(F)cccc2OC)n2cnnc12 [Example 191, N-(2-fluoro-6-methoxybenzyl)-8-(2-methoxyphenyl)-[1,2,4]triazolo[4,3-a] pyridin-5-amine] |  |  | 0.479 µM | 0.996 µM
COc1cccc(F)c1CNc1ccc(-c2ccccc2C(F)(F)F)c2nncn12 [Example 193, N-(2-fluoro-6-methoxybenzyl)-8-(2-(trifluoromethyl)phenyl)-[1,2,4]triazolo[4,3-a]pyridin-5-amine] |  |  | 0.283 µM | 0.704 µM
COc1cccc(F)c1CNc1ccc(-c2cncc(C(C)O)c2)c2nncn12 (stereo not shown) [Example 197, 1-(5-(5-((2-fluoro-6-methoxybenzyl)amino)-[1,2,4]triazolo[4,3-a]pyridin-8-yl)pyridin-3-yl)ethanol] |  |  | 0.414 µM | 0.161 µM
